Measurements reported in publication PMC12040169 (PLOS Biology, 2025).

Experiment: in vitro
Details: human, hela cells, % viability
Work on `COc1ccc(-c2nc3ncccc3cc2O)cc1C` [CBK073700] yielded a viability at 28.5 h, 10 µM of 70.1%. Work on `Cc1cc(C)nc(NC(=O)C2C3C=CC(C3)C2C(=O)O)c1` (stereo not drawn) [CBK058843] yielded a viability at 28.5 h, 10 µM of 104%. `COc1cc(CNCCO)ccc1OCc1cccc(Cl)c1` [CBK270013C] showed a viability at 28.5 h, 10 µM of 94.5%. With `O=C(Nc1cccnc1)N1CCN(Cc2ccccc2)CC1` [CBK155663] the viability at 28.5 h, 10 µM was 87.7%. Work on `N#CCCn1cc(C(=O)N2CCCCC2)c(-c2cccc(Cl)c2)n1` [CBK306209] yielded a viability at 28.5 h, 10 µM of 80%. With `CS(=O)(=O)N1CCN(C2CCN(Cc3ccccc3)CC2)CC1` [CBK263485] the viability at 28.5 h, 10 µM was 95.9%. Work on `O=C(NCCCN1CCOCC1)NC(=O)c1ccc(Cl)cc1` [CBK269531] yielded a viability at 28.5 h, 10 µM of 96.4%. `S=C(NC1=NCCS1)Nc1ccccc1` [CBK016591] gave a viability at 28.5 h, 10 µM of 95.2%. With `O=C(NCc1cccnc1)c1ccc(-c2ccoc2)nc1` [CBK156275] the viability at 28.5 h, 10 µM was 89.6%. For `O=C(Nc1cccc(C(F)(F)F)c1)c1c(O)c2ccccc2[nH]c1=O` [CBK159985], the viability at 28.5 h, 10 µM was 93.2%. With `COCc1cccc(Nc2ncnc3c2cnn3CCO)c1` [CBK306214] the viability at 28.5 h, 10 µM was 93.2%. In the case of `CC(=O)Oc1ccc(-c2cccc(C(=O)NCC(=O)O)c2)cc1` [CBK263828], the viability at 28.5 h, 10 µM is reported as 86.9%. Molecule `CCc1nc2ccc(C(=O)Nc3ccc(C(N)=O)cc3)cn2c1N(CC)Cc1cccc(Br)c1` [CBK146960] has a viability at 28.5 h, 10 µM of 92.9%. For `O=C(CN1CCCc2ccccc21)c1ccsc1` [CBK138333], the viability at 28.5 h, 10 µM was 91.5%. `Oc1ccc2ccccc2c1Cc1c(O)ccc2ccccc12` [CBK263583] gave a viability at 28.5 h, 10 µM of 72.9%. Work on `NC(=O)c1ccccc1NC(=O)Cc1ccc2c(c1)CCCC2` [CBK298334] yielded a viability at 28.5 h, 10 µM of 88.9%. With `Cc1nn(C)cc1C(=O)O[C@H]1C[C@@H](c2ccc(F)cc2)N(C)C1=O` [CBK283615] the viability at 28.5 h, 10 µM was 103%. `Cc1ccc(-n2ncc3c(=O)n(CC(=O)Nc4ccc(C)cc4C)cnc32)cc1` [CBK287535] showed a viability at 28.5 h, 10 µM of 83.4%. Molecule `Cc1cc(C(=O)NCc2ccnc(N3CCOCC3)c2)c(C)n1-c1cccc(Cl)c1` [CBK298301] has a viability at 28.5 h, 10 µM of 81.9%. `O=C(Cn1nnc2ccccc2c1=O)NCC(F)(F)F` [CBK304533] gave a viability at 28.5 h, 10 µM of 94.1%. `COc1ccc(Oc2ncnc3c2[nH]c2ccccc23)cc1` [CBK291254] gave a viability at 28.5 h, 10 µM of 88.9%. Work on `O=C(Cn1cc(/C=C/c2[nH]c(=O)[nH]c(=O)c2[N+](=O)[O-])c2ccccc21)Nc1ccc2c(c1)OCO2` [CBK267036] yielded a viability at 28.5 h, 10 µM of 80.8%. Work on `CC(CN(C)C)C(=O)c1cn(C)c2ccccc12` (stereo not drawn) [CBK015540] yielded a viability at 28.5 h, 10 µM of 102%. For `Cc1nnc(Sc2ncccc2C(F)(F)F)s1` [CBK115211], the viability at 28.5 h, 10 µM was 87.7%. For `O=C(NC1CCCC1)C1CCCN1c1nc(O)cc(C(F)(F)F)n1` (stereo not drawn) [CBK003927], the viability at 28.5 h, 10 µM was 83.5%. In the case of `CCn1cc(CN(C)Cc2nccs2)c2cc(C(=O)O)ncc21` [CBK306512], the viability at 28.5 h, 10 µM is reported as 85.3%. In the case of `CN(Cc1ccc(Cl)c(F)c1)C(=O)c1cn[nH]c1C1CCCCN1` (stereo not drawn) [CBK304742], the viability at 28.5 h, 10 µM is reported as 103%. `Cc1cc(N2C(=O)c3ccc(C(=O)O)cc3C2=O)ccc1NC(=O)c1cccs1` [CBK265415] gave a viability at 28.5 h, 10 µM of 92.8%. Molecule `O=C(N/N=C\c1ccccc1C(F)(F)F)c1ccc(=O)[nH]n1` [CBK263389] has a viability at 28.5 h, 10 µM of 100%. In the case of `c1cncc(-c2ccc(N3CCN(CCN4CCCC4)CC3)nc2)c1` [CBK037661], the viability at 28.5 h, 10 µM is reported as 108%. With `CN(Cc1cccn1C)C(=O)c1cc(-c2cnn(C)c2)[nH]n1` [CBK283325] the viability at 28.5 h, 10 µM was 103%. With `c1cn2cc(-c3ccc(N4CCOCC4)cc3)nc(NCC3CCOCC3)c2n1` [CBK037308] the viability at 28.5 h, 10 µM was 96.3%. `O=C(Nc1ncccc1Cl)c1ccc(F)cc1` [CBK288215] showed a viability at 28.5 h, 10 µM of 93.1%. `COc1cccc(NC(=O)CSCc2n[nH]c(=O)[nH]2)c1` [CBK266058] gave a viability at 28.5 h, 10 µM of 95.8%. In the case of `O=C(CN1CCN(C/C=C/c2ccccc2)CC1)Nc1ccc(C2CCCCC2)cc1` [CBK074497], the viability at 28.5 h, 10 µM is reported as 112%. For `Nc1ccc(-c2nc(-c3ccccc3)c3cc(-c4ccc5nc(-c6ccc(N)cc6)nc(-c6ccccc6)c5c4)ccc3n2)cc1` [CBK261152], the viability at 28.5 h, 10 µM was 107%.
